{"source": "paper PMC7352342", "about": "“Inhibition of Patched Drug Efflux Increases Vemurafenib Effectiveness against Resistant Braf^V600E Melanoma” (Cancers, 2020)", "key": {"MeWo cells [1]": {"test_system": "MeWo cells", "test": "Cytotoxicity assay (neutral red), MeWo cells", "type": "cell-based, human", "conditions": "for Dxr-IC50 in the presence of 20 µM compound: MeWo (Figure 3B), same series also tested on A375 (Figure S1); for Dxr-IC50 in the presence of 20 µM compound / effect on dxr cytotoxicity: compound at 20 µM; for effect on dxr cytotoxicity: melanoma cells MeWo (Figure 3B) and A375 (Figure S1), compared to PAH; for IC50: Homo sapiens", "description": "(§1) Human melanoma cell lines A375 and MeWo were purchased from ATCC, and cultured in DMEM medium supplemented with 10% fetal bovine serum and penicillin/streptomycin (Invitrogen) at 37 °C in a 5% CO2/95% water-saturated air atmosphere. Melanoma cell lines SKMEL 28, SKMEL V3, WM9S, and WM9R were provided by Robert Ballotti (C3M, Nice, France). MeWo-dxrR cells were obtained by adding increasing concentrations of doxorubicin, up to 0.2 µM, in the culture medium over 6 months. These cells were grown in medium supplemented with 0.2 µM dxr. WM9R cells were obtained by adding increasing concentrations of vemurafenib, up to 5 µM, in the culture medium over 6 months. These cells were grown in medium supplemented with 5 µM vemurafenib. HEK cells were grown in 75 mm tissue culture dishes (Falcon, Franklin Lakes, NJ, USA) in Dulbecco’s modified Eagle’s medium (Gibco, Life Technologies, Saint Aubin, France) supplemented with 10% fetal calf serum (Hyclone, Thermo Fisher Scientific GMBH, Ulm, Germany) and 1% penicillin/streptomycin (Gibco, Life Technologies, Saint Aubin, France) in a humidified incubator at 37 °C (5% CO2).\n(§2) Cells were seeded in 96-well plates in triplicate and grown in medium to achieve 70 to 80% confluence. Medium was then removed and replaced with 100 µL/well of complete medium containing PAH or DMSO as a control. After 2 h, 100 µL of complete medium containing serial dilutions of dxr, cisplatin or vemurafenib were added. Plates were incubated at 37 °C and 5% CO2. After 24 or 48 h, cells were incubated for 3 h at 37 °C with 100 µL/well neutral red (NR) solution (50 µg/mL in medium) following the manufacturer’s protocol. Measurements were made in microplate readers (Multiskan Go Microplate Spectrophotometer from Thermo Scientific)."}, "A375 cells [2]": {"test_system": "A375 cells", "test": "Cytotoxicity assay (neutral red), A375 cells", "type": "cell-based, human", "conditions": "for IC50: Homo sapiens", "description": "as §1, §2"}, "MeWo-DxrR cells": {"test_system": "MeWo-DxrR cells", "test": "Cytotoxicity assay (neutral red), MeWo cells rendered resistant to dxr", "type": "cell-based", "conditions": "Homo sapiens, Dxr + DMSO", "description": "as §1\nCells were seeded in 96-well plates in triplicate and grown in medium to achieve 70 to 80% confluence. […] Measurements were made in microplate readers (Multiskan Go Microplate Spectrophotometer from Thermo Scientific)."}, "MeWo cells [3]": {"test_system": "MeWo cells", "test": "Melanoma cells grafted on the chorioallantoic membrane (CAM) of chick eggs", "type": "in vivo", "conditions": "MeWo tumors on CAM; sPAH 500 µM and/or Dxr 20 µM, 100 µL every two days, 10 days", "description": "These experiments were performed by the company INOVOTION (La Tronche, France). Fertilized White Leghorn eggs were randomized in 4 groups 9 days after inoculation of 3.10^6 MeWo cells onto the CAM of each egg. At day 10 (E10), tumors began to be detectable and they were treated by adding 100 µL of vehicle (1.2% DMSO in PBS), doxorubicin, and sPAH alone or with doxorubicin. Eggs were treated every two days (E10, E12, E14, E16, E18) for 10 days in the same way. At day 19 (E19), the upper portion of the CAM was removed, washed in PBS, and directly transferred in PFA for 48 h, and the tumors were then carefully cut away from normal CAM tissue."}, "WM9R cells": {"test_system": "WM9R cells", "test": "Competition on dxr loading, WM9R cells", "type": "cell-based", "conditions": "10 µM dxr, 100 µM vemurafenib, 1 h", "description": "(§3) Dxr efflux measurements were carried out as previously described. Cells were seeded on coverslips in 24-well plates and allowed to grow to 80% confluence. Coverslips were incubated at 37 °C and 5% CO2 with 10 μM dxr in physiological buffer (140 mM NaCl, 5 mM KCl, 1 mM CaCl2, 1 mM MgSO4, 5 mM glucose, 20 mM HEPES, pH 7.4). After 2 h, three coverslips were immediately fixed with 4% PFA for the dxr loading control, rapidly washed with PBS and mounted in SlowFade Gold antifade reagent with DAPI (Invitrogen). The other coverslips (triplicated per condition) were incubated with physiological buffer supplemented with DMSO or 10 µM of PAH under gentle shaking at room temperature and protected from light. After 30 min, coverslips were fixed with 4% PFA, washed, and mounted as described above. For competition on dxr loading, A375 and WM9R cells seeded on coverslips were incubated for 1 h at 37 °C and 5% CO2 with 10 μM dxr in physiological buffer in the presence or the absence of 100 µM vemurafenib. Images were acquired with a Zeiss Axioplan 2 fluorescence microscope coupled to a digital charge-coupled device camera using a 40×/1.3 Plan NeoFluar objective and filters for Alexa 594. Dxr fluorescence was quantified using ImageJ software. Sampling of cells was performed randomly. About 100 cells (from three wells) were scored per condition per experiment."}, "A375 cells [4]": {"test_system": "A375 cells", "test": "Competition on dxr loading, A375 cells", "type": "cell-based, human", "conditions": "10 µM dxr, 100 µM vemurafenib, 1 h", "description": "as §3"}, "[5]": {"test_system": "A375 BRAF^V600E melanoma cells", "test": "Melanoma xenograft study in mice", "type": "in vivo", "conditions": "Figure S6", "procedure": "Forty-eight male athymic Nu/NU NMRI mice (4–5 weeks) were purchased from Charles River and housed under pathogen-free conditions. A 200 µL aliquot of 3 Millions A375 BRAF^V600E melanoma cells were injected subcutaneously per mouse. […] Animals were monitored daily for symptoms of disease (weight loss >20%, ruffled coat, hunched back, weakness, reduced motility) and tumor sizes were measured every 3 to 4 days. […]\nA part of each tumor was cut in 8 µm thick tissue sections using a microtome-cryostat for quantification of the number of apoptotic tumor cells and of proliferative cells performed using the colorimetric DeadEND TUNEL System (Promega, Mannheim, Germany) and immunofluorescence analysis of Ki67 (BD pharmigen 556003), respectively. OCT was removed from the remainder of each tumor, and tumors were crushed in 50 mM Tris-HCl pH 6.8, 10% glycerol, and 2% SDS), heated at 95 °C, and sonicated for Western blot analyses as well as vemurafenib and cholesterol quantification. Protein concentration in each homogenate was evaluated using a Bio-Rad protein assay based on the Bradford dye-binding method."}}, "note": "Counter-ions that a name gives are not always drawn. Like-named read-outs stand apart in the source and are kept apart here."}
{"smiles": "COc1ccc(O)c(CC=C(C)CCc2c(C)cc(OC)c(C)c2C)c1", "note": "[Compound 8]", "values": [{"measurement": "Dxr-IC50 in the presence of 20 µM compound", "setting": "MeWo cells [1]", "value": "could not be determined, owing to greater than 50% viability"}, {"measurement": "effect on dxr cytotoxicity", "setting": "MeWo cells [1]", "value": "had no effect on dxr cytotoxicity"}]}
{"smiles": "COc1cc(C)c(CCC(C)=CCC2=CC(=O)C=CC2=O)c(C)c1C", "note": "[Compound 9, Panicein A]", "values": [{"measurement": "Dxr-IC50 in the presence of 20 µM compound", "setting": "MeWo cells [1]", "value": "could not be determined, owing to greater than 50% viability"}, {"measurement": "effect on dxr cytotoxicity", "setting": "MeWo cells [1]", "value": "very weakly increased the cytotoxicity of dxr"}]}
{"smiles": "COc1cc(C)c(CC/C(C)=C/Cc2cc(O)ccc2O)c(C)c1C", "note": "[Natural PAH, panicein A hydroquinone]", "values": [{"measurement": "IC50", "setting": "MeWo cells [1]; MeWo, MeWo cells, 2 µM Dxr present, read-out: IC50 of PAH at 2 µM Dxr", "value": "6.6 ± 0.8", "unit": "µM"}, {"measurement": "IC50", "setting": "A375 cells [2]; A-375, A375 cells, 2 µM Dxr present, read-out: IC50 of PAH at 2 µM Dxr", "value": "12.4 ± 4.9", "unit": "µM"}]}
{"smiles": "COc1ccc(O)c(CCC(C)CCc2c(C)cc(OC)c(C)c2C)c1", "note": "(centres unmarked) [Compound 11]", "values": [{"measurement": "Dxr-IC50 in the presence of 20 µM compound", "setting": "MeWo cells [1]", "value": "could not be determined, owing to greater than 50% viability"}]}
{"smiles": "COc1cccc2c1C(=O)c1c(O)c3c(c(O)c1C2=O)C[C@@](O)(C(=O)CO)C[C@@H]3O[C@H]1C[C@H](N)[C@H](O)[C@H](C)O1", "note": "[Dxr, Doxorubicin hydrochloride, reference compound]", "values": [{"measurement": "IC50", "setting": "MeWo cells [1]; MeWo, Dxr + DMSO, 24 or 48 h, read-out: Dxr IC50", "value": "142 ± 2.2", "unit": "µM"}, {"measurement": "IC50", "setting": "MeWo-DxrR cells", "value": "247 ± 49", "unit": "µM"}, {"measurement": "Tumor regression (%) (tumor weight with respect to control)", "setting": "MeWo cells [3]", "value": 28, "unit": "%"}, {"measurement": "IC50", "setting": "A375 cells [2]; A-375, A375, Dxr + DMSO, 24 or 48 h, read-out: Dxr IC50", "value": "41 ± 8.2", "unit": "µM"}]}
{"smiles": "CCCS(=O)(=O)Nc1ccc(F)c(C(=O)c2c[nH]c3ncc(-c4ccc(Cl)cc4)cc23)c1F", "note": "[vemurafenib]", "values": [{"measurement": "amount of dxr in cells in the presence of vemurafenib", "setting": "WM9R cells", "value": "significantly increased"}, {"measurement": "amount of dxr in cells in the presence of vemurafenib", "setting": "A375 cells [4]", "value": "significantly increased"}, {"measurement": "ERK phosphorylation in tumor extracts (pERK/ERK, Western blot)", "setting": "[5]", "value": "reduced ERK phosphorylation"}]}
{"smiles": "COc1cc(C)c(CCC(C)CCC2=CC(=O)C=CC2=O)c(C)c1C", "note": "(centres unmarked) [Compound 12]", "values": [{"measurement": "Dxr-IC50 in the presence of 20 µM compound", "setting": "MeWo cells [1]", "value": "could not be determined, owing to greater than 50% viability"}]}
{"smiles": "COc1cc(C)c(CCC(C)CCc2cc(O)ccc2O)c(C)c1C", "note": "(centres unmarked) [Compound 13]", "values": [{"measurement": "Dxr IC50 in the presence of compound relative to that in the presence of PAH", "setting": "MeWo cells [1]; MeWo, 20 µM compound", "value": "approximately 4 fold"}, {"measurement": "Dxr IC50 in the presence of compound relative to that in the presence of PAH", "setting": "A375 cells [2]; A375, 20 µM compound", "value": "comparable to that of PAH"}]}
